Measurements: ChEMBL document CHEMBL5620423, “Highly-tumor-targeted PAD4 inhibitors with PBA modification inhibit tumors in vivo by specifically inhibiting the PAD4-H3cit-NETs pathway in neutrophils” (Eur J Med Chem, 2023)
Active and inactive are the calls of the source. The rule behind the calls is not given here.

Legend:
[1] = system: 4T1; experiment: Cytotoxicity against mouse 4T1 cells assessed as reduction in cell viability measured after 48 hrs by MTT assay; conditions: 4T1, 48 h
[2] = system: Sarcoma-180; experiment: Antitumor activity against Sarcoma-180 mouse model assessed as tumor weight at 10 umol/kg (reference value: 1.65 +/-0.2 gms); type: functional; conditions: dose 10 µmol/kg
[3] = system: Sarcoma-180; experiment: Antitumor activity against Sarcoma-180 mouse model assessed as inhibition of tumor growth at 10 umol/kg; type: functional
[4] = system: Sarcoma-180; experiment: Antitumor activity against Sarcoma-180 mouse model assessed as tumor weight at 2 umol/kg (reference value: 1.65 +/-0.2 gms); type: functional; conditions: dose 2 µmol/kg
[5] = system: Sarcoma-180; experiment: Antitumor activity against Sarcoma-180 mouse model assessed as inhibition of tumor growth at 2 umol/kg; type: functional
[6] = system: Lewis lung carcinoma; experiment: Cytotoxicity against mouse Lewis lung carcinoma cells assessed as effect on cell viability at 3.125 to 100 uM measured after 48 hrs by MTT assay; type: functional, cell-based; conditions: dose 3.125-100 µM
[7] = system: 4T1; experiment: Cytotoxicity against mouse 4T1 cells assessed as effect on cell viability at 3.125 to 100 uM measured after 48 hrs by MTT assay; type: functional, cell-based; conditions: dose 3.125-100 µM
[8] = system: L02; experiment: Cytotoxicity against human HL7702 cells assessed as effect on cell viability at 3.125 to 100 uM measured after 48 hrs by MTT assay; type: toxicity, cell-based; conditions: l02, 48 h, dose 3.125-100 µM
[9] = Drug uptake in human HL7702 cells assessed as green fluorescence intensity at 50 uM measured after 48 hrs by Hoechst33342 staining based confocal laser microscopy; type: ADME, cell-based; conditions: l02, 48 h
[10] = Drug uptake in mouse 4T1 cells assessed as layer of green fluorescence around the cell membrane at 50 uM measured after 48 hrs by Hoechst33342 staining based confocal laser microscopy; type: ADME; conditions: 4t1, 48 h
[11] = system: 4T1; experiment: Induction of cell morphological changes in mouse 4T1 cells assessed as increase in number of cells with shrank mitochondria measured after 48 hrs by transmission electron microscopy; type: functional, cell-based
[12] = system: 4T1; experiment: Induction of cell morphological changes in mouse 4T1 cells assessed as rounded tumor cells at 50 uM measured after 48 hrs by scanning electron microscopy; type: functional, cell-based
[13] = system: 4T1; experiment: Induction of cell morphological changes in mouse 4T1 cells assessed as reduction in pseudopodia on cell surface at 50 uM measured after 48 hrs by scanning electron microscopy; type: functional, cell-based
[14] = Drug uptake in mouse 4T1 cells assessed as increase in green fluorescence intensity at 50 uM measured for 24 hrs flow cytometry; type: ADME, cell-based; conditions: 4t1, 24 h
[15] = biological target: Protein-arginine deiminase type-4 (Mus musculus) (UniProt Q9Z183); experiment: Inhibition of PAD4 in mouse bone marrow neutrophils assessed as reduction in H3 cit expression by measuring red filamentous histone structure at 50 uM measured after 48 hrs by Hoechst33342 staining based confocal laser scanning microscopy; type: cell-based; conditions: Neutrophil
Chain of Protein-arginine deiminase type-4 (Mus musculus) (Q9Z183 whole entry): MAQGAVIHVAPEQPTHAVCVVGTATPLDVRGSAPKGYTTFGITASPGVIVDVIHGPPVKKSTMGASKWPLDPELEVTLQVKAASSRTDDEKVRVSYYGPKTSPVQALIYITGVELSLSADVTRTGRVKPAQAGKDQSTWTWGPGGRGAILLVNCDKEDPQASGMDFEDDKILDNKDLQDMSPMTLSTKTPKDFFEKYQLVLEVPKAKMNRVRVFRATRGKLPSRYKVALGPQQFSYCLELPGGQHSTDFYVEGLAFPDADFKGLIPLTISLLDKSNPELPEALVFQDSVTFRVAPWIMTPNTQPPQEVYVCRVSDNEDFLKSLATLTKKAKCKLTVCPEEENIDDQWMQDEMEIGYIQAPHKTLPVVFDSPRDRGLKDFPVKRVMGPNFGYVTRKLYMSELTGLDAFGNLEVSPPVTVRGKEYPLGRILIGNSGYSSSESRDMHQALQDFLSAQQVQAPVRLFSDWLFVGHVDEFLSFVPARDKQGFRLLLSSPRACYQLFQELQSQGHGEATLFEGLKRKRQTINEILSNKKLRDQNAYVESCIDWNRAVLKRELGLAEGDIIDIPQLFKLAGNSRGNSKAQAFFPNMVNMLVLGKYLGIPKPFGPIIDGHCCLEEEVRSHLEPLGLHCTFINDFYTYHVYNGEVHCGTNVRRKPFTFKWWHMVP

[16] = Drug uptake in mouse 4T1 cells assessed as drug localization in cytoplasm at 50 uM measured after 48 hrs by Hoechst33342 staining based confocal laser scanning microscopy; type: ADME, cell-based; conditions: 4t1, 48 h
[17] = Drug uptake in mouse bone marrow neutrophils assessed as drug localization in nucleus at 50 uM measured after 48 hrs by Hoechst33342 staining based confocal laser scanning microscopy; type: ADME, cell-based; conditions: neutrophil
[18] = biological target: Protein-arginine deiminase type-4 (Mus musculus) (UniProt Q9Z183); experiment: Inhibition of PAD4 in mouse 4T1 cells assessed as reduction in citrullinated histone level at 100 uM measured after 48 hrs by Hoechst33342 staining based confocal laser scanning microscopy; type: cell-based
[19] = biological target: Protein-arginine deiminase type-4 (Mus musculus) (UniProt Q9Z183); experiment: Inhibition of PAD4 in mouse bone marrow neutrophils assessed as reduction in citrullinated histone level at 100 uM measured after 48 hrs by Hoechst33342 staining based confocal laser scanning microscopy; type: cell-based; conditions: Neutrophil
[20] = system: 4T1; experiment: Antitumor activity against mouse 4T1 cells xenografted in BALB/c mouse assessed as reduction in tumor volume at 2 to 10 umol/kg, iv for 21 days; type: functional, organism-based; conditions: dose 2-10 µmol/kg, time 21.0 day
[21] = system: 4T1; experiment: Antitumor activity against mouse 4T1 cells xenografted in BALB/c mouse assessed as reduction in tumor weight at 10 umol/kg, iv for 21 days; type: functional, organism-based; conditions: dose 10.0 µmol/kg, time 21.0 day
[22] = Toxicity in BALB/c mouse xenografted with mouse 4T1 cells assessed as decrease in body weight at 2 to 10 umol/kg, iv measured after 9 to 15 days; type: organism-based; conditions: in vivo, dose lower 2 µmol/kg, time lower 9 day, dose upper 10 µmol/kg, time upper 15 day
[23] = system: 4T1; experiment: Anti-metastatic activity against mouse 4T1 cells xenografted in BALB/c mouse assessed as reduction in number of lung metastatic tumor nodules at 5 to 10 umol/kg, iv for 21 days; type: functional, organism-based; conditions: dose 5-10 µmol/kg, time 21.0 day
[24] = system: 4T1; experiment: Anti-metastatic activity against mouse 4T1 cells assessed as reduction in tumor cell lesions in lungs at 10 umol/kg, iv for 21 days by Hematoxylin-Eosin staining; type: functional, organism-based; conditions: dose 10.0 µmol/kg, time 21.0 day
[25] = system: 4T1; experiment: Anti-metastatic activity against mouse 4T1 cells assessed as reduction in tumor cell lesions in lungs at 5 umol/kg, iv for 21 days by Hematoxylin-Eosin staining; type: functional, organism-based; conditions: dose 5.0 µmol/kg, time 21.0 day
[26] = system: 4T1; experiment: Anti-metastatic activity against mouse 4T1 cells assessed as reduction in inflammatory cell infiltration in lungs at 5 umol/kg, iv for 21 days by Hematoxylin-Eosin staining; type: functional, organism-based; conditions: dose 5.0 µmol/kg, time 21.0 day
[27] = system: 4T1; experiment: Anti-metastatic activity against mouse 4T1 cells assessed as reduction in tumor cell lesions in lungs at 2 umol/kg, iv for 21 days by Hematoxylin-Eosin staining; type: functional, organism-based; conditions: dose 2.0 µmol/kg, time 21.0 day
[28] = system: 4T1; experiment: Anti-metastatic activity against mouse 4T1 cells assessed as reduction in neutrophil extranuclear traps formation by measuring decrease in Ly6G-labeled neutrophils in tumor at 10 umol/kg, iv for 21 days by immunofluorescence analysis; type: functional, organism-based; conditions: dose 10.0 µmol/kg, time 21.0 day
[29] = system: 4T1; experiment: Anti-metastatic activity against mouse 4T1 cells assessed as reduction in neutrophil extranuclear traps formation by measuring decrease in H3cit positivity in tumor at 10 umol/kg, iv for 21 days by immunofluorescence analysis; type: functional, organism-based; conditions: dose 10.0 µmol/kg, time 21.0 day
[30] = Hepatotoxicity in BALB/c mouse xenografted with mouse 4T1 cells assessed as serum ALT level at 2 to 10 umol/kg, iv for 21 days; type: toxicity, organism-based; conditions: in vivo, 504 h, dose 2-10 µmol/kg, time 21 day
[31] = Hepatotoxicity in BALB/c mouse xenografted with mouse 4T1 cells assessed as serum AST level at 2 to 10 umol/kg, iv for 21 days; type: toxicity, organism-based; conditions: in vivo, 504 h, dose 2-10 µmol/kg, time 21 day
[32] = Nephrotoxicity in BALB/c mouse xenografted with mouse 4T1 cells assessed as serum creatinine level at 2 to 10 umol/kg, iv for 21 days; type: toxicity, organism-based; conditions: in vivo, 504 h, dose 2-10 µmol/kg, time 21 day
[33] = Nephrotoxicity in BALB/c mouse xenografted with mouse 4T1 cells assessed as serum BUN level at 2 to 10 umol/kg, iv for 21 days; type: toxicity, organism-based; conditions: in vivo, 504 h, dose 2-10 µmol/kg, time 21 day
[34] = Toxicity in BALB/c mouse xenografted with mouse 4T1 cells assessed as heart morphological changes at 10 umol/kg, iv for 21 days by Hematoxylin-Eosin staining based analysis; type: organism-based; conditions: in vivo, 504 h, dose 10 µmol/kg, time 21 day
[35] = Toxicity in BALB/c mouse xenografted with mouse 4T1 cells assessed as liver morphological changes at 10 umol/kg, iv for 21 days by Hematoxylin-Eosin staining based analysis; type: organism-based; conditions: in vivo, 504 h, dose 10 µmol/kg, time 21 day
[36] = Toxicity in BALB/c mouse xenografted with mouse 4T1 cells assessed as spleen morphological changes at 10 umol/kg, iv for 21 days by Hematoxylin-Eosin staining based analysis; type: organism-based; conditions: in vivo, 504 h, dose 10 µmol/kg, time 21 day
[37] = Toxicity in BALB/c mouse xenografted with mouse 4T1 cells assessed as kidney morphological changes at 10 umol/kg, iv for 21 days by Hematoxylin-Eosin staining based analysis; type: organism-based; conditions: in vivo, 504 h, dose 10 µmol/kg, time 21 day
[38] = system: Mus musculus; experiment: Immunomodulatory activity in iv dosed BALB/c mouse xenografted with mouse 4T1 cells assessed as increase in normal neutrophils in tumor tissues administered for 21 days by CyTOF analysis; type: functional, organism-based; conditions: time 21.0 day
[39] = system: Mus musculus; experiment: Immunomodulatory activity in iv dosed BALB/c mouse xenografted with mouse 4T1 cells assessed as decrease in proportion of aged neutrophils (CD194hi|CD62Llo) in tumor tissues administered for 21 days by CyTOF analysis; type: functional, organism-based; conditions: time 21.0 day
[40] = system: Mus musculus; experiment: Immunomodulatory activity in iv dosed BALB/c mouse xenografted with mouse 4T1 cells assessed as macrophage polarization by measuring increase in proportion of M1 macrophages administered for 21 days by CyTOF analysis; type: functional, organism-based; conditions: time 21.0 day
[41] = system: Mus musculus; experiment: Immunomodulatory activity in iv dosed BALB/c mouse xenografted with mouse 4T1 cells assessed as macrophage polarization by measuring proportion of M2 macrophages administered for 21 days by CyTOF analysis; type: functional, organism-based; conditions: time 21.0 day

With `N=C(CCl)NCCC[C@H](NC(=O)c1cc(B(O)O)cc([N+](=O)[O-])c1)C(=O)NCc1ccccc1` the IC50 [1] was greater than 100 µM, the Activity [2] was 1.19 g and the inhibition in vivo at 10 µmol/kg [3] was 27.6%.

With `N=C(CCl)NCCC[C@H](NC(=O)c1cc([N+](=O)[O-])c2nonc2c1)C(=O)NCc1ccccc1B(O)O` the IC50 [1] was greater than 100 µM, the Activity [2] was 0.89 g and the inhibition in vivo at 10 µmol/kg [3] was 45.7%.

Compound `N=C(CCl)NCCC[C@H](NC(=O)c1ccccc1B(O)O)C(=O)NCc1ccccc1` has an IC50 [1] greater than 100 µM, an Activity [2] of 1 g and an inhibition in vivo at 10 µmol/kg [3] of 39.2%.

`COc1cccc2c1C(=O)c1c(O)c3c(c(O)c1C2=O)C[C@@](O)(C(=O)CO)C[C@@H]3O[C@H]1C[C@H](N)[C@H](O)[C@H](C)O1` [DOXORUBICIN] showed an IC50 [1] of 1.63 µM, an Activity [4] of 0.94 g and an inhibition in vivo at 2 µmol/kg [5] of 42.7%.

With `N=C(CCl)NCCC[C@H](NC(=O)c1ccc(F)c(B(O)O)c1)C(=O)NCc1ccccc1` the IC50 [1] was greater than 100 µM, the Activity [2] was 1.03 g and the inhibition in vivo at 10 µmol/kg [3] was 37.5%.

With `N=C(CCl)NCCC[C@H](NC(=O)c1cc(B(O)O)ccc1F)C(=O)NCc1ccccc1` the IC50 [1] was greater than 100 µM, the Activity [2] was 1.14 g and the inhibition in vivo at 10 µmol/kg [3] was 30.8%.

Work on `N=C(CCl)NCCC[C@H](NC(=O)c1cc([N+](=O)[O-])c2nonc2c1)C(=O)NCc1cccc(B(O)O)c1` yielded an IC50 [1] greater than 100 µM, an Activity [2] of 0.84 g and an inhibition in vivo at 10 µmol/kg [3] of 49.2%. For the same compound, the Activity [6] was “inactive”, the Activity [7] was “inactive” and the Activity [8] was “Non-Toxic”. The Drug uptake [9] was “Not Active”, the Drug uptake [10] was “Active” and the Activity [11] was “Active”. The Activity [12] was “Active”, the Activity [13] was “Active” and the Drug uptake [14] was “Active”. For the same compound, the inhibition [15] was “Active”, the Drug uptake [16] was “Active” and the Drug uptake [17] was “Active”. The inhibition [18] was “Active”, the inhibition [19] was “Active” and the Activity [20] was “Active”. The Activity [21] was “Active”, the Activity [22] was “Non-Toxic” and the Activity [23] was “Active”. For the same compound, the Activity [24] was “Active”, the Activity [25] was “Active” and the Activity [26] was “inactive”. The Activity [27] was “inactive”, the Activity [28] was “Active” and the Activity [29] was “Active”. For the same compound, the Activity [30] was “Non-Toxic”, the Activity [31] was “Non-Toxic” and the Activity [32] was “Non-Toxic”. The Activity [33] was “Non-Toxic”, the Activity [34] was “Non-Toxic” and the Activity [35] was “Non-Toxic”. The Activity [36] was “Non-Toxic”, the Activity [37] was “Non-Toxic” and the Activity [38] was “Active”. The Activity [39] was “Active”, the Activity [40] was “Active” and the Activity [41] was “inactive”.
